From ChEMBL document CHEMBL2439953, “Dimeric argininamide-type neuropeptide Y receptor antagonists: chiral discrimination between Y1 and Y4 receptors” (Bioorg Med Chem, 2013) come the findings set out here.

For assay [1], the target named is T1, Neuropeptide Y receptor type 1 (Homo sapiens, UniProt P25929).
T1 sequence (P25929 whole entry): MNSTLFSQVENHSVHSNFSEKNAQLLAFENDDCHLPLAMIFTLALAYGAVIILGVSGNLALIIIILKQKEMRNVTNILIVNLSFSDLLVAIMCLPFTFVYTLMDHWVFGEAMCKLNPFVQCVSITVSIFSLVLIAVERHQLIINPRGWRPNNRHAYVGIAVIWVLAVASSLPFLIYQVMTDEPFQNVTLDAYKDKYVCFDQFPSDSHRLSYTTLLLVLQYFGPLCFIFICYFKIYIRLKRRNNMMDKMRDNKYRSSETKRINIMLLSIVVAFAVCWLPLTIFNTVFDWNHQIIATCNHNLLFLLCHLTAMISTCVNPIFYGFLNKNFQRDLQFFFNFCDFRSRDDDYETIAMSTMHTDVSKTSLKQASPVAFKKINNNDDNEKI
As to the kind of experiment: Displacement of [3H]UR-MK114 from human neuropeptide Y receptor type 1 expressed in human SK-N-MC cells. The class given is cell-based. (In general: In a radioligand displacement assay an active substance lowers the binding of a labelled ligand.)

The target in assay [2] is T2, Neuropeptide Y receptor type 2 (Homo sapiens, UniProt P49146).
T2 sequence (P49146 whole entry): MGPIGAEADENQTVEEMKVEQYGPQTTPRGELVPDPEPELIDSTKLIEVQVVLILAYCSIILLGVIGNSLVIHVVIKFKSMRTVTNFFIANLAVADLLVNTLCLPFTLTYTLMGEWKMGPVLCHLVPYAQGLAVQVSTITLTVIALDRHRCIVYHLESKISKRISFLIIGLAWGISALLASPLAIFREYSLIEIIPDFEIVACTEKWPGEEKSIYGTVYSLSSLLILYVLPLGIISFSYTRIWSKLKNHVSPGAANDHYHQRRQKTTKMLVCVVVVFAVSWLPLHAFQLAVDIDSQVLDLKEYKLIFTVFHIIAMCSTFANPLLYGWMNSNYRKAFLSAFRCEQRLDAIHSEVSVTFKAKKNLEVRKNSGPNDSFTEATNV
Briefly: Binding affinity to human neuropeptide Y receptor type 2 receptor expressed in CHO cells using Cy5-pNPY by flow cytometric analysis. The class given is cell-based. Background: In flow cytometry, cells or beads pass a laser one at a time.

The target in assay [3] is T3, Neuropeptide Y receptor type 4 (Homo sapiens, UniProt P50391). As to the kind of experiment: Binding affinity to human neuropeptide Y receptor type 4 receptor expressed in CHO cells using Cy5-[K4]-hPP by flow cytometric analysis. Format: cell-based.
The target of assay [4] is T4, Neuropeptide Y receptor type 5 (Homo sapiens, UniProt Q15761).
T4 sequence (Q15761 whole entry): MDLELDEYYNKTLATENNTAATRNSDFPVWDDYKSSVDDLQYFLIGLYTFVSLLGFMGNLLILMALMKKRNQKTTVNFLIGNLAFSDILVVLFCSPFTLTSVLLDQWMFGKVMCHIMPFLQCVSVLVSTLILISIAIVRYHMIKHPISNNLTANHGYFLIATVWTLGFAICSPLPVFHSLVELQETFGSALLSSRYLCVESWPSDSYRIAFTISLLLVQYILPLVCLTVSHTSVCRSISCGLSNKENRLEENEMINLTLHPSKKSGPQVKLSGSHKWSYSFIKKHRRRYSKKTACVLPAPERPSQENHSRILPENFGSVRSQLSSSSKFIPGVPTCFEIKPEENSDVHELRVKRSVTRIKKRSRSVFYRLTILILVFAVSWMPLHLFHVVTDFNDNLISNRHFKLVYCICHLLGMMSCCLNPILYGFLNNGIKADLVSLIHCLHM
Briefly: Binding affinity to human neuropeptide Y receptor type 5 receptor expressed in HEC-1B cells using Cy5-pNPY by flow cytometric analysis. The class given is cell-based.

The target of assay [5] is T3, Neuropeptide Y receptor type 4. Briefly: Antagonist activity at human neuropeptide Y receptor type 4 expressed in CHO cells co-expressing Gqi5-mtAEQ assessed as inhibition of hPP-induced calcium mobilization by Aequorin assay. Format: functional, cell-based. (In general: A change in cytosolic calcium serves as a functional read-out for many receptors and channels.)

T3 sequence (P50391 whole entry): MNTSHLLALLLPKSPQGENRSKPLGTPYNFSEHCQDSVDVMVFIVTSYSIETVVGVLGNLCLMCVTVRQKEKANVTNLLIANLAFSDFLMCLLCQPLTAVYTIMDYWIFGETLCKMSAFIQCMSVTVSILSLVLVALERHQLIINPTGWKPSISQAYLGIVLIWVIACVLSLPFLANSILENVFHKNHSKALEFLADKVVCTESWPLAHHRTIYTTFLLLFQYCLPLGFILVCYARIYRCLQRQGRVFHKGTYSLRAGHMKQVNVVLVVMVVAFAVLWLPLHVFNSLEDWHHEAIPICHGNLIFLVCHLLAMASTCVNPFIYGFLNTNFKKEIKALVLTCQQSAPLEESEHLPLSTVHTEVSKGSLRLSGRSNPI

In the case of `NCCCCCCNC(=O)/N=C(/N)NCCC[C@@H](NC(=O)C(c1ccccc1)c1ccccc1)C(=O)NCc1ccc(O)cc1`, in assay [1], the Ki – broadly, the equilibrium dissociation constant of an inhibitor or competing ligand from its target – turned out to be 0.0099 µM.
`NCCN(CCNC(=O)c1ccc(C(=O)NCCOCCOCCNC(=O)/N=C(/N)NCCC[C@H](NC(=O)C(c2ccccc2)c2ccccc2)C(=O)NCc2ccc(O)cc2)cc1)CCNC(=O)c1ccc(C(=O)NCCOCCOCCNC(=O)/N=C(/N)NCCC[C@H](NC(=O)C(c2ccccc2)c2ccccc2)C(=O)NCc2ccc(O)cc2)cc1`: the Ki in assay [2] was 1.4 µM; in assay [3], 0.26 µM; in assay [4], greater than 5 µM; in assay [1], greater than 5 µM. In assay [5], the antagonist dissociation constant (Kb) – broadly, the equilibrium dissociation constant of an antagonist, usually derived from a functional assay – turned out to be 0.027 µM.
In turn, `N=C(N)NCCC[C@@H](NC(=O)C(c1ccccc1)c1ccccc1)C(=O)NCc1ccc(CNC(=O)NCCCCNC(=O)NCCN)cc1` registered an inhibitory constant (Ki) in assay [1] of 0.89 µM.
Turning to `NCCNC(=O)CCC(=O)NCCNC(=O)CCC(=O)NCCNC(=O)/N=C(\N)NCCC[C@H](NC(=O)C(c1ccccc1)c1ccccc1)C(=O)NCc1ccc(CNC(N)=O)cc1`, the Ki in assay [2], in assay [3], in assay [4] and in assay [1] was greater than 5 µM throughout. In assay [5], the antagonist dissociation constant (Kb) is greater than 5 µM.
Turning to `NCCOCCOCCNC(=O)CCC(=O)NCCNC(=O)/N=C(\N)NCCC[C@@H](NC(=O)C(c1ccccc1)c1ccccc1)C(=O)NCc1ccc(CNC(N)=O)cc1`, the results for the inhibition constant (Ki) in assay [3] and in assay [1] were greater than 5 µM and 0.077 µM, respectively.
As for `NCCOCCOCCNC(=O)/N=C(/N)NCCC[C@@H](NC(=O)C(c1ccccc1)c1ccccc1)C(=O)NCc1ccc(O)cc1`, the Ki in assay [2] is greater than 5 µM; in assay [3], greater than 5 µM; in assay [4], greater than 5 µM; in assay [1] it was 0.0073 µM.
Turning to `NCCOCCOCCNC(=O)/N=C(/N)NCCC[C@H](NC(=O)C(c1ccccc1)c1ccccc1)C(=O)NCc1ccc(O)cc1`, the Ki in assay [2], in assay [4] and in assay [1] was greater than 5 µM throughout.
With `NCCCOCCOCCOCCNC(=O)CCC(=O)NCCNC(=O)/N=C(\N)NCCC[C@H](NC(=O)C(c1ccccc1)c1ccccc1)C(=O)NCc1ccc(CNC(N)=O)cc1`, the Ki in assay [2] is greater than 5 µM; in assay [3] it was 3.7 µM; in assay [4], greater than 5 µM; in assay [1], greater than 5 µM. Also, in assay [5], the antagonist equilibrium constant (Kb) was greater than 5 µM.
As for `NCCN(CCNC(=O)CCC(=O)NCCCCCCNC(=O)/N=C(/N)NCCC[C@@H](NC(=O)C(c1ccccc1)c1ccccc1)C(=O)NCc1ccc(O)cc1)CCNC(=O)CCC(=O)NCCCCCCNC(=O)/N=C(/N)NCCC[C@@H](NC(=O)C(c1ccccc1)c1ccccc1)C(=O)NCc1ccc(O)cc1`, the Ki was 1.3 µM in assay [2], 0.27 µM in assay [3], greater than 5 µM in assay [4] and 0.04 µM in assay [1]. Moreover, the antagonist equilibrium constant (Kb) in assay [5] was 0.033 µM.
In the case of `NCCCCCCNC(=O)/N=C(/N)NCCC[C@@H](NC(=O)C(c1ccccc1)c1ccccc1)C(=O)NCc1ccc(CNC(N)=O)cc1`, the inhibition constant (Ki) in assay [3] was greater than 5 µM; in assay [1], 0.2 µM. For the same compound, the Kb in assay [5] is greater than 5 µM.
Turning to `N=C(N)NCCOCCOCCNC(=O)/N=C(/N)NCCC[C@@H](NC(=O)C(c1ccccc1)c1ccccc1)C(=O)NCc1ccc(O)cc1`, the inhibition constant (Ki) was 3.8 µM in assay [3], greater than 5 µM in assay [4] and 0.13 µM in assay [1].
In assay [3], `NC(N)=NCCC[C@H](NC(=O)C(c1ccccc1)c1ccccc1)C(=O)NCc1ccc(O)cc1` gave an inhibition constant (Ki) greater than 5 µM.
Turning to `NCCC(=O)NCCNC(=O)CCC(=O)NCCNC(=O)CCC(=O)NCCNC(=O)/N=C(\N)NCCC[C@H](NC(=O)C(c1ccccc1)c1ccccc1)C(=O)NCc1ccc(CNC(N)=O)cc1`, the Ki was greater than 5 µM in assay [2], 3.5 µM in assay [3], greater than 5 µM in assay [4] and greater than 5 µM in assay [1]. The Kb in assay [5] was greater than 5 µM.
`NCCCOCCOCCOCCNC(=O)CCC(=O)NCCNC(=O)/N=C(\N)NCCC[C@@H](NC(=O)C(c1ccccc1)c1ccccc1)C(=O)NCc1ccc(CNC(N)=O)cc1`: the Ki in assay [3] was greater than 5 µM; in assay [1] it was 0.071 µM.
As to `N=C(N)NCCC[C@@H](NC(=O)C(c1ccccc1)c1ccccc1)C(=O)NCc1ccc(O)cc1`, the inhibition constant (Ki) in assay [3] was greater than 5 µM.
In assay [1], `NCCOCCOCCNC(=O)/N=C(/N)NCCC[C@@H](NC(=O)C(c1ccccc1)c1ccccc1)C(=O)NCc1ccc(CNC(N)=O)cc1` had a Ki of 0.031 µM.
As for `NCCCCCCNC(=O)/N=C(/N)NCCC[C@H](NC(=O)CC1(CC(=O)N2CCN(C3c4ccccc4NC(=O)c4ccccc43)CC2)CCCC1)C(=O)NCCn1c(=O)n(-c2ccccc2)n(-c2ccccc2)c1=O` (some centres undefined), the Ki in assay [2] is 0.007 µM; in assay [1] it was greater than 5 µM.
On to `NCCNC(=O)CCC(=O)NCCNC(=O)CCC(=O)NCCNC(=O)/N=C(\N)NCCC[C@@H](NC(=O)C(c1ccccc1)c1ccccc1)C(=O)NCc1ccc(CNC(N)=O)cc1`, for which the Ki in assay [3] was greater than 5 µM; in assay [1], 1 µM.
In turn, `N=C(N)NCCC[C@@H](NC(=O)C(c1ccccc1)c1ccccc1)C(=O)NCc1ccc(CNC(=O)NCCCCNC(=O)CN)cc1` had an inhibition constant (Ki) in assay [1] of 0.014 µM.
For `NCCN(CCNC(=O)c1ccc(C(=O)NCCCCNC(=O)/N=C(/N)NCCC[C@@H](NC(=O)C(c2ccccc2)c2ccccc2)C(=O)NCc2ccc(O)cc2)cc1)CCNC(=O)c1ccc(C(=O)NCCCCNC(=O)/N=C(/N)NCCC[C@@H](NC(=O)C(c2ccccc2)c2ccccc2)C(=O)NCc2ccc(O)cc2)cc1`, the Ki in assay [2] was 0.78 µM; in assay [3], 0.21 µM; in assay [4], greater than 5 µM; in assay [1] it was 0.053 µM. Besides, the Kb in assay [5] was 0.034 µM.
`NCCOCCOCCNC(=O)CCC(=O)NCCNC(=O)/N=C(\N)NCCC[C@H](NC(=O)C(c1ccccc1)c1ccccc1)C(=O)NCc1ccc(CNC(N)=O)cc1`: the Ki in assay [2] is greater than 5 µM; in assay [3], 3.2 µM; in assay [4] it was greater than 5 µM; in assay [1], greater than 5 µM. In addition, in assay [5], the antagonist equilibrium constant (Kb) was greater than 5 µM.
For the compound `NCCC(=O)NCCNC(=O)CCC(=O)NCCNC(=O)/N=C(\N)NCCC[C@@H](NC(=O)C(c1ccccc1)c1ccccc1)C(=O)NCc1ccc(CNC(N)=O)cc1`, the inhibitory constant (Ki) is greater than 5 µM in assay [3] and 0.086 µM in assay [1].
For the compound `NCCNC(=O)CCC(=O)NCCNC(=O)/N=C(\N)NCCC[C@@H](NC(=O)C(c1ccccc1)c1ccccc1)C(=O)NCc1ccc(CNC(N)=O)cc1`, the values for the Ki in assay [3] and in assay [1] were greater than 5 µM and 0.36 µM, respectively.
On to `NC(=NCCC[C@@H](NC(=O)C(c1ccccc1)c1ccccc1)C(=O)NCc1ccc(O)cc1)NC(=O)CCCCCCC(=O)NC(N)=NCCC[C@@H](NC(=O)C(c1ccccc1)c1ccccc1)C(=O)NCc1ccc(O)cc1`, for which the values for the Ki in assay [3] and in assay [1] were 2 µM and 0.063 µM, respectively.
For the compound `N=C(N)NCCCC(NC(=O)CC1(CC(=O)N2CCN(C3c4ccccc4NC(=O)c4ccccc43)CC2)CCCC1)C(=O)NCCn1c(=O)n(-c2ccccc2)n(-c2ccccc2)c1=O` (single isomer, unassigned), the Ki was greater than 7.5 µM in assay [3], greater than 5 µM in assay [4] and greater than 5 µM in assay [1].
As to `CCC(=O)NCC(=O)NCCCCNC(=O)NCc1ccc(CNC(=O)[C@@H](CCCNC(=N)N)NC(=O)C(c2ccccc2)c2ccccc2)cc1`, the Ki in assay [1] was 0.073 µM.
With `N=C(N)NCCC[C@@H](NC(=O)C(c1ccccc1)c1ccccc1)C(=O)NCc1ccc(CNC(=O)NCCCCN)cc1`, the inhibitory constant (Ki) was greater than 5 µM in assay [3] and 0.041 µM in assay [1]. Besides, in assay [5], the Kb was greater than 5 µM.
Turning to `NCCCCNC(=O)/N=C(/N)NCCC[C@@H](NC(=O)C(c1ccccc1)c1ccccc1)C(=O)NCc1ccc(O)cc1`, the inhibitory constant (Ki) in assay [3] is greater than 5 µM.
The compound `N=C(N)NCCC[C@@H](NC(=O)C(c1ccccc1)c1ccccc1)C(=O)NCc1ccc(CNC(N)=O)cc1` returned an inhibition constant Ki in assay [3] greater than 5 µM. For the same compound, in assay [5], the Kb was greater than 5 µM.
Take `NCCNC(=O)CCC(=O)NCCNC(=O)/N=C(\N)NCCC[C@H](NC(=O)C(c1ccccc1)c1ccccc1)C(=O)NCc1ccc(CNC(N)=O)cc1`: the Ki was greater than 5 µM in assay [2], 4.1 µM in assay [3] and greater than 5 µM in assay [1]. The antagonist equilibrium constant (Kb) in assay [5] was greater than 5 µM.
In the case of `NCCC(=O)NCCNC(=O)CCC(=O)NCCNC(=O)CCC(=O)NCCNC(=O)/N=C(\N)NCCC[C@@H](NC(=O)C(c1ccccc1)c1ccccc1)C(=O)NCc1ccc(CNC(N)=O)cc1`, the Ki is greater than 5 µM in assay [3] and 1.2 µM in assay [1].
